ChEMBL document CHEMBL5291721, “A preclinical secondary pharmacology resource illuminates target-adverse drug reaction associations of marketed drugs” (Nat Commun, 2023)

Legend:
[1] = target: Motilin receptor (Homo sapiens, UniProt O43193)
[2] = target: T1, Amine oxidase [flavin-containing] A (Homo sapiens, UniProt P21397); assay type: functional
T1 sequence (P21397 whole entry): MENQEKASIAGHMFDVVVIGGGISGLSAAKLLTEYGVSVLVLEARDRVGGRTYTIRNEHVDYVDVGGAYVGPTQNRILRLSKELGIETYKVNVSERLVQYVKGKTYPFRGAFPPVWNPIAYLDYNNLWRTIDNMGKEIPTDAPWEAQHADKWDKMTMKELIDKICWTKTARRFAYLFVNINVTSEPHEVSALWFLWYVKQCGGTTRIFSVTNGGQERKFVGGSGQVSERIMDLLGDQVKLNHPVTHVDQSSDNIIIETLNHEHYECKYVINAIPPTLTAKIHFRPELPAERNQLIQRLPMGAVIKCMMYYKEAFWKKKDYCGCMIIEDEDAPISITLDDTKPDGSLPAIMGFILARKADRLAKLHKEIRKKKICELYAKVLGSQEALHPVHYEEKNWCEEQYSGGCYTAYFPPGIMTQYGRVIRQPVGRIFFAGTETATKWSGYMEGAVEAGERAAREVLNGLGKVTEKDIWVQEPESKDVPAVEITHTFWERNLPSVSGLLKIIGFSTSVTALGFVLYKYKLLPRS

[3] = target: T2, Neuropeptide Y receptor type 1 (Homo sapiens, UniProt P25929)
T2 sequence (P25929 whole entry): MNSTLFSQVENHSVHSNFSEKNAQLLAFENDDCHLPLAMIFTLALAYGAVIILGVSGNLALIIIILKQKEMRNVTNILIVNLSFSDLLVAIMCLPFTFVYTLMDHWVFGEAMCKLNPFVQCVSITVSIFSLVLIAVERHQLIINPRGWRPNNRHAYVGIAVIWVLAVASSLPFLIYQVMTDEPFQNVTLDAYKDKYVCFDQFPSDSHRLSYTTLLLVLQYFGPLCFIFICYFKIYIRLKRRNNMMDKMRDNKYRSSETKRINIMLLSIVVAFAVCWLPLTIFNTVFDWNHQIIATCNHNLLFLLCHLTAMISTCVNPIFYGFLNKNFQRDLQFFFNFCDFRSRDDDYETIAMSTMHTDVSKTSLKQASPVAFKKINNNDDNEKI

[4] = target: D(1A) dopamine receptor (Homo sapiens, UniProt P21728); assay type: functional, cell-based
Sequence of D(1A) dopamine receptor (P21728 whole entry): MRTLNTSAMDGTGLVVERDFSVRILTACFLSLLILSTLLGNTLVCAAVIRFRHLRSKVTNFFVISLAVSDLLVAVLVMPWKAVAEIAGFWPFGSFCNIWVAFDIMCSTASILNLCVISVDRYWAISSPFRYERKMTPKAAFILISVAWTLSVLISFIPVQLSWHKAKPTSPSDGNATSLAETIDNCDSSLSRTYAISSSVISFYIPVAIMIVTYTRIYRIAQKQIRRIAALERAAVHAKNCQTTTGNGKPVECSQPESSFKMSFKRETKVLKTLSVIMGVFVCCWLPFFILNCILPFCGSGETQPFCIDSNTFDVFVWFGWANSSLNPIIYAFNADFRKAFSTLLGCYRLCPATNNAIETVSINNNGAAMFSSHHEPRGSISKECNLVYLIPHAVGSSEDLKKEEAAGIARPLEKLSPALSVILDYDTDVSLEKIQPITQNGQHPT

[5] = target: T3, Progesterone receptor (Homo sapiens, UniProt P06401); assay type: functional
T3 sequence (P06401 whole entry): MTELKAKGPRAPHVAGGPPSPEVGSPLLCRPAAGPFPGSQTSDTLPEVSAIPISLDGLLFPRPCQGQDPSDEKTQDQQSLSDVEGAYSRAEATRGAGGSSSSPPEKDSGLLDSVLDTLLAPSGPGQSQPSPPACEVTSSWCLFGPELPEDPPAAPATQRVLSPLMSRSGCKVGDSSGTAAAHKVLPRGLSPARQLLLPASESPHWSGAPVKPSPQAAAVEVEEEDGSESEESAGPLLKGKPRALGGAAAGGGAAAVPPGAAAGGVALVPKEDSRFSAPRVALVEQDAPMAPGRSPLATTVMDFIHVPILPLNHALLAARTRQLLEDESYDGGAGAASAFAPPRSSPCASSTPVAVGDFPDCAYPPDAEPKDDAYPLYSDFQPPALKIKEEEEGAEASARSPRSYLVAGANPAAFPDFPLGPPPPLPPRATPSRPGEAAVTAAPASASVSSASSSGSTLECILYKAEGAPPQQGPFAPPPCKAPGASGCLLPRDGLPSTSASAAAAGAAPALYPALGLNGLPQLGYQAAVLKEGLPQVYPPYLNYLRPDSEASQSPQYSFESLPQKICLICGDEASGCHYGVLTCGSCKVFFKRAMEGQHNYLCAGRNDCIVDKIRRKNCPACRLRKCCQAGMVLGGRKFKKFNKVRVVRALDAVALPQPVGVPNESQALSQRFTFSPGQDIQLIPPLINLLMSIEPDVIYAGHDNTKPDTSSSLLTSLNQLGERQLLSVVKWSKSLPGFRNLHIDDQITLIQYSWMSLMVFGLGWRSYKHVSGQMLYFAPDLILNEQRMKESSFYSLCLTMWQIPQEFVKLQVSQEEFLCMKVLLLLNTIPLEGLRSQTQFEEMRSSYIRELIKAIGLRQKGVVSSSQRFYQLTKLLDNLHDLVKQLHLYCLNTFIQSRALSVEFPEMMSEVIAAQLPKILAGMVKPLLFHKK

[6] = target: Voltage-gated inwardly rectifying potassium channel KCNH2 (Homo sapiens, UniProt Q12809); assay type: functional
Sequence of Voltage-gated inwardly rectifying potassium channel KCNH2 (Q12809 whole entry): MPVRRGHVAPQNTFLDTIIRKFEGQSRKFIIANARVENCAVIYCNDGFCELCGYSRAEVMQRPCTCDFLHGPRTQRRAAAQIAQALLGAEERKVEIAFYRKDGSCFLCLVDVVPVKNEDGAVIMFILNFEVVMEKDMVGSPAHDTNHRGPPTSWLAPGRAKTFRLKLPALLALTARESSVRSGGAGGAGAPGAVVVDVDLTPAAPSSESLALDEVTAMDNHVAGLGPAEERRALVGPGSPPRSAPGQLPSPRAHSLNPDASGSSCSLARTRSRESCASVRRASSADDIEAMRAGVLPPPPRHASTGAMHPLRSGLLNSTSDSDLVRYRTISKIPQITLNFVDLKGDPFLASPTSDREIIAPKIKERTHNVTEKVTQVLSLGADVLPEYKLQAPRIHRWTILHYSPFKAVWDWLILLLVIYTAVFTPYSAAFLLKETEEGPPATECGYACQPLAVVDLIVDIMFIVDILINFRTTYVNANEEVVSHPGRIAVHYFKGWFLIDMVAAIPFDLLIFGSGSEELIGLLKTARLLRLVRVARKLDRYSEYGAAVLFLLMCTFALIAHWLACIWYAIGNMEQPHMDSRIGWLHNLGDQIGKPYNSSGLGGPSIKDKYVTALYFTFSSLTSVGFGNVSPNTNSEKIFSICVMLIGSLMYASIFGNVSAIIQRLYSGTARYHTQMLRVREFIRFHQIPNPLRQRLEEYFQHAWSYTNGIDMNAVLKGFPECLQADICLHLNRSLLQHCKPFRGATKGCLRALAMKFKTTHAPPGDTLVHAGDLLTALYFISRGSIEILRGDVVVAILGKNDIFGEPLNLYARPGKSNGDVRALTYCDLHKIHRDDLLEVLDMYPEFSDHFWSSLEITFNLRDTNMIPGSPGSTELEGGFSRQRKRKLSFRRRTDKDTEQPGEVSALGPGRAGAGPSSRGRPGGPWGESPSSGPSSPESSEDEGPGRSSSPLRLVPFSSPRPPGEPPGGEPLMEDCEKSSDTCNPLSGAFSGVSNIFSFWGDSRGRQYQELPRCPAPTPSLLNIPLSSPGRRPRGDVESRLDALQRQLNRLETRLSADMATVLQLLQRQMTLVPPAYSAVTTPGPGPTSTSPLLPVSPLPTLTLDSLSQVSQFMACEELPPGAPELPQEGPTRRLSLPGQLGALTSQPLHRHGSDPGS

[7] = target: T4, 5-hydroxytryptamine receptor 1A (Homo sapiens, UniProt P08908); assay type: functional, cell-based
T4 sequence (P08908 whole entry): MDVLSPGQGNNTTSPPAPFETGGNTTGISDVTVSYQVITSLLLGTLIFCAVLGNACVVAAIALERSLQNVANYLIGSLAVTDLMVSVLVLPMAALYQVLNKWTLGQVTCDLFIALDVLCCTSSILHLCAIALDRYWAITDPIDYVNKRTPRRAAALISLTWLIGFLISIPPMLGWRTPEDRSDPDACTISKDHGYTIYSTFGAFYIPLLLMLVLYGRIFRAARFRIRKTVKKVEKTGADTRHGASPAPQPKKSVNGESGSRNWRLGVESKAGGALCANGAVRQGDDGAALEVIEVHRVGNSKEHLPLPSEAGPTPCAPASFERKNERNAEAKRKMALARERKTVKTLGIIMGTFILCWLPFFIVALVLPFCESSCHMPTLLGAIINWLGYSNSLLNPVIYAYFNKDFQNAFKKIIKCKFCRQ

[8] = target: Kappa-type opioid receptor (Homo sapiens, UniProt P41145)
Sequence of Kappa-type opioid receptor (P41145 whole entry): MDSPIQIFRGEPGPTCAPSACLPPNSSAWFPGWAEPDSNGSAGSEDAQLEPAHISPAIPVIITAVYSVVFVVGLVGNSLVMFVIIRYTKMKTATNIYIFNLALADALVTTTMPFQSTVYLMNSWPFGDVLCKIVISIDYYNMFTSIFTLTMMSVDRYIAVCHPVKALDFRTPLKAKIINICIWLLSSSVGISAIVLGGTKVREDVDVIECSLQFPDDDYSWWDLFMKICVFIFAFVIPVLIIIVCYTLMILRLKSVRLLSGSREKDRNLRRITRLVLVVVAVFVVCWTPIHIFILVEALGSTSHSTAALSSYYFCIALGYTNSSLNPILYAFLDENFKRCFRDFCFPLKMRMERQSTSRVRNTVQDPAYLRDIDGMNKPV

[9] = target: T5, Gastrin/cholecystokinin type B receptor (Homo sapiens, UniProt P32239)
T5 sequence (P32239 whole entry): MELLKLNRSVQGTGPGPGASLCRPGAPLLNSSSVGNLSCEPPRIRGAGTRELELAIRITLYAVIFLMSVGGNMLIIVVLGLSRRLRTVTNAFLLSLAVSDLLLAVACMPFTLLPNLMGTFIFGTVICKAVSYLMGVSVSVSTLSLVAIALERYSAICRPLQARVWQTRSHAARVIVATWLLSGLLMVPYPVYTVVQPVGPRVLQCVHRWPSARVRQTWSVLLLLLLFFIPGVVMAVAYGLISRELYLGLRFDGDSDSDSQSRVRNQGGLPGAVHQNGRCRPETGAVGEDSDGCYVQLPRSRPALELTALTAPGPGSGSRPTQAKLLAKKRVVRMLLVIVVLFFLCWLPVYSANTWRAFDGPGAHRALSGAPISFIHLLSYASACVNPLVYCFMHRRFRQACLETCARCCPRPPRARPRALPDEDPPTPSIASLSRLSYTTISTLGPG
Also: assay procedure not described here.

Sequence of Motilin receptor (O43193 whole entry): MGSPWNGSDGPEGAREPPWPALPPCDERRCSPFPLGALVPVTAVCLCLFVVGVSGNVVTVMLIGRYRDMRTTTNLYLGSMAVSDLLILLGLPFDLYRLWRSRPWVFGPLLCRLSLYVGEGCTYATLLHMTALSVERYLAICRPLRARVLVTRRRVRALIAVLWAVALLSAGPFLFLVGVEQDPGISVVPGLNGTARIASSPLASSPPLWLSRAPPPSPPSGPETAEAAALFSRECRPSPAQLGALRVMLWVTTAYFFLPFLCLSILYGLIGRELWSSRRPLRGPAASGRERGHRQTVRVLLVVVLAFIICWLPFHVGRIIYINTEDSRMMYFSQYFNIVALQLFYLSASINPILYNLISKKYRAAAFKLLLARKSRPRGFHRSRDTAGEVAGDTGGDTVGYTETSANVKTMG

Row | SMILES | AC50 [1] | AC50 [2] | AC50 [3] | AC50 [4] | AC50 [5] | AC50 [6] | AC50 [7] | AC50 [8] | AC50 [9]
1 | O=C(c1cc(Cc2n[nH]c(=O)c3ccccc23)ccc1F)N1CCN(C(=O)C2CC2)CC1 [OLAPARIB] | > 30 µM | > 10 µM | > 30 µM | > 10 µM | > 30 µM | > 30 µM | > 10 µM | > 10 µM | –
2 | CO[C@H]1C[C@H](O[C@H]2CC[C@@]3(C)[C@H](CC[C@@H]4[C@@H]3CC[C@]3(C)[C@@H](C5=CC(=O)OC5)[C@@H](OC(C)=O)C[C@]43O)C2)O[C@@H](C)[C@@H]1O [OLEANDRIN] | – | > 30 µM | – | > 30 µM | – | > 30 µM | > 30 µM | > 30 µM | –
3 | Fc1ccc([C@@H]2CCNC[C@H]2COc2ccc3c(c2)OCO3)cc1 [PAROXETINE] | > 10 µM | > 10 µM | > 30 µM | > 10 µM | – | – | 17 µM | – | > 30 µM
4 | NC(=O)NC(=O)Cc1ccccc1 [PHENACEMIDE] | > 10 µM | > 10 µM | > 10 µM | > 10 µM | > 10 µM | > 30 µM | > 10 µM | > 10 µM | –
5 | CCCN(CCC)S(=O)(=O)c1ccc(C(=O)O)cc1 [PROBENECID] | > 10 µM | > 10 µM | > 10 µM | > 10 µM | > 10 µM | > 30 µM | > 10 µM | > 10 µM | –
6 | CCc1nc(N)nc(N)c1-c1ccc(Cl)cc1 [PYRIMETHAMINE] | > 10 µM | > 30 µM | > 10 µM | > 10 µM | > 10 µM | 0.649 µM | 18 µM | > 30 µM | –
7 | CCN(CC)CCCC(C)Nc1c2ccc(Cl)cc2nc2ccc(OC)cc12 (stereo not drawn) [QUINACRINE] | – | – | – | – | – | 0.7 µM | – | – | –
8 | CC1=C(/C=C/C(C)=C/C=C/C(C)=C/CO)C(C)(C)CCC1 [RETINOL] | > 10 µM | > 10 µM | > 10 µM | > 10 µM | > 30 µM | – | > 10 µM | – | –
9 | Cc1cc(C)nc(NS(=O)(=O)c2ccc(N)cc2)n1 [SULFAMETHAZINE] | > 10 µM | > 30 µM | > 10 µM | > 30 µM | > 10 µM | > 30 µM | > 10 µM | > 10 µM | –
10 | CCCCCCCC(=O)CC[C@@H]1[C@@H](C/C=C\CCCC(=O)OC(C)C)[C@@H](O)C[C@H]1O [UNOPROSTONE ISOPROPYL] | – | > 30 µM | – | – | 21 µM | – | – | – | –
11 | CC(c1cc2ccccc2s1)N(O)C(N)=O (stereo not drawn) [ZILEUTON] | > 10 µM | > 10 µM | > 10 µM | > 10 µM | > 30 µM | > 30 µM | > 10 µM | > 10 µM | –
